# Values of other authors in US20140370149A1, “METHODS FOR USING REBAUDIOSIDE C AS A FLAVOR ENHANCER” (International Flavors & Fragrances Inc., priority 2011, published 2014).
# Conditions: sweetness relative to sucrose
structure (smiles),measurement,value
C=C1C[C@@]23CC[C@H]4[C@@](C)(CCC[C@@]4(C)C(=O)O[C@@H]4O[C@H](CO)[C@@H](O)[C@H](O)[C@H]4O)[C@@H]2CC[C@]1(O[C@@H]1O[C@H](CO)[C@@H](O)[C@H](O)[C@H]1O[C@@H]1O[C@@H](C)[C@H](O)[C@@H](O)[C@H]1O)C3 [dulcoside A],times sweeter than sucrose,30 times
